Source: patent US9609868B2, “Alkoximino-substituted anthranilic acid diamides as pesticides” (BAYER CROPSCIENCE AKTIENGESELLSCHAFT, priority 2013, dated 2017)
Read-outs that look alike come from different tables or passages of the source.

Assays:
[1] = log P by HPLC on reversed-phase column (C18), EEC directive 79/831 Annex V.A8; assay type: physicochemical; details: for log p: data refer to the E isomer
Protocol: The log P values reported in the tables and Preparation Examples above were determined in accordance with EEC directive 79/831 Annex V.A8 by HPLC (High Performance Liquid Chromatography) using a reversed-phase column (C18). Temperature 43° C. The calibration is effected with unbranched alkan-2-ones (having 3 to 16 carbon atoms), for which the log P values are known.

Spodoptera frugiperda = Spodoptera frugiperda - spray test (SPODFR); assay type: in vivo; details: application rate 100 g/ha, maize leaf disks
Protocol: Spodoptera frugiperda—Spray Test (SPODFR)
(§1) Solvent: 78.0 parts by weight of acetone • • 1.5 parts by weight of dimethylformamide
(§2) Emulsifier: 0.5 parts by weight of alkylaryl polyglycol ether
(§3) To produce a suitable active compound preparation, 1 part by weight of active compound is mixed with the stated amounts of solvent and emulsifier, and the concentrate is diluted with emulsifier-containing water to the desired concentration.
Leaf disks of maize (Zea mays) are sprayed with an active compound preparation of the desired concentration and, after drying, populated with caterpillars of the armyworm (Spodoptera frugiperda).
After the desired period of time, the efficacy in % is determined. 100% means that all the caterpillars have been killed; 0% means that no caterpillars have been killed.

Myzus persicae = Myzus persicae - spray test (MYZUPE); assay type: in vivo; details: application rate 100 g/ha, Chinese cabbage leaf disks
Protocol: Myzus persicae—Spray Test (MYZUPE)
Solvent: 78 parts by weight of acetone • • 1.5 parts by weight of dimethylformamide
as §2, §3
Disks of Chinese cabbage leaves (Brassica pekinensis) infested by all stages of the green peach aphid (Myzus persicae) are sprayed with an active compound preparation of the desired concentration.
After the desired period of time, the efficacy in % is determined. 100% means that all the aphids have been killed; 0% means that none of the aphids have been killed.

Phaedon cochleariae = Phaedon cochleariae - spray test (PHAECO); assay type: in vivo; details: application rate 100 g/ha, Chinese cabbage leaf disks
Protocol: Phaedon cochleariae—Spray Test (PHAECO)
as §1, §2, §3
After the desired period of time, the efficacy in % is determined. 100% means that all the beetle larvae have been killed; 0% means that no beetle larvae have been killed.

[2] = Table A, HPLC reversed-phase C18, 43° C.
[3] = Table B, HPLC reversed-phase C18, 43° C.
[4] = reversed-phase HPLC column (C18), HPLC-MS data in the preparation text, HPLC reversed-phase C18, 43° C., read-out: log P
[5] = Table C, HPLC reversed-phase C18, 43° C.

SMILES	log p [1, 2]	efficacy (caterpillars killed) (Spodoptera frugiperda) [%]	efficacy (aphids killed) (Myzus persicae) [%]	other results
CON=Cc1cc(C)c(NC(=O)c2cc(OCC(F)F)nn2-c2ncccc2Cl)c(C(=O)NNC(=O)OC)c1 (mixture of isomers) [A-37]	2.37	100	100	
CON=Cc1cc(C)c(NC(=O)c2cc(OC)nn2-c2ncccc2Cl)c(C(=O)NNC(=O)OC)c1 (mixture of isomers) [A-38]	2.00	100		efficacy (beetle larvae killed) (Phaedon cochleariae): 100%
CON=Cc1cc(C)c(NC(=O)c2cc(OC)nn2-c2ncccc2Cl)c(C(=O)NNC(=O)OC)c1 (mixture of isomers) [A-40]	2.45	100	90	
CON=Cc1cc(C)c(NC(=O)c2cc(C(F)(F)F)nn2-c2ncccc2Cl)c(C(=O)NC2CS(=O)(=O)C2)c1 (mixture of isomers) [B-04]		100	90	log p [1, 3]: 2.78
CON=Cc1cc(C)c(NC(=O)c2cc(OC(C)C)nn2-c2ncccc2Cl)c(C(=O)NC2COC2)c1 (mixture of isomers) [B-07]		100		log p [1, 3]: 2.57
CON=Cc1cc(C)c(NC(=O)c2cc(OCC(F)F)nn2-c2ncccc2Cl)c(C(=O)NC2COC2)c1 (mixture of isomers) [B-09]		100	100	log p [1, 3]: 2.44
CON=Cc1cc(C)c(NC(=O)c2cc(CF)nn2-c2ncccc2Cl)c(C(=O)NC2COC2)c1 (mixture of isomers) [B-12]				log p [1, 3]: 2.04; efficacy (beetle larvae killed) (Phaedon cochleariae): 100%
O=C(O)c1cc(OCC(F)F)nn1-c1ncccc1Cl [1-(3-Chloropyridin-2-yl)-3-(2,2-difluoroethoxy)-1H-pyrazole-5-carboxylic acid]				chromatographic logP [1, 4]: 1.59
CO/N=C/c1cc(C)c(NC(=O)c2cc(OC(F)F)nn2-c2ncccc2Cl)c(C(=O)NN)c1 [1-(3-Chloropyridin-2-yl)-3-(difluoromethoxy)-N-{2-(hydrazinocarbonyl)-4-[(E)-(methoxyimino)methyl]-6-methylphenyl}-1H-pyrazole-5-carboxamide]				chromatographic logP ([1]; log P): 2.12
O=C(O)c1cc(CF)nn1-c1ncccc1Cl [1-(3-Chloropyridin-2-yl)-3-(fluoromethyl)-1H-pyrazole-5-carboxylic acid]				chromatographic logP [1, 4]: 1.03
CCOc1cc(C(=O)O)n(-c2ncccc2Cl)n1 [1-(3-chloropyridin-2-yl)-3-ethoxy-1H-pyrazole-5-carboxylic acid]				chromatographic logP [1, 4]: 1.47
CC(C)Oc1cc(C(=O)O)n(-c2ncccc2Cl)n1 [1-(3-chloropyridin-2-yl)-3-isopropoxy-1H-pyrazole-5-carboxylic acid]				chromatographic logP [1, 4]: 1.76
O=C(O)c1cc(OCc2ccc(C(F)(F)F)nc2)nn1-c1ncccc1Cl [1-(3-chloropyridin-2-yl)-3-{[6-(trifluoromethyl)pyridin-3-yl]methoxy}-1H-pyrazole-5-carboxylic acid]				chromatographic logP [1, 4]: 1.59
CON=Cc1cc(C)c2nc(-c3cc(OCC(F)F)nn3-c3ncccc3Cl)oc(=O)c2c1 [2-[1-(3-Chloropyridin-2-yl)-3-(2,2-difluoroethoxy)-1H-pyrazol-5-yl]-8-methyl-4-oxo-4H-3,1-benzoxazine-6-carbaldehyde O-methyl oxime]				chromatographic logP [1, 4]: 3.92
CON=Cc1cc(C)c2nc(-c3cc(OC(F)F)nn3-c3ncccc3Cl)oc(=O)c2c1 [2-[1-(3-Chloropyridin-2-yl)-3-(difluoromethoxy)-1H-pyrazol-5-yl]-8-methyl-4-oxo-4H-3,1-benzoxazine-6-carbaldehyde O-methyl oxime]				chromatographic logP [1, 4]: 3.93
CON=Cc1cc(C)c(NC(=O)c2cc(Br)nn2-c2ncccc2Cl)c(C(=O)N(C)NC(=O)Oc2ccccc2)c1 [A-05]	3.46	100	100	
C=CCOC(=O)NN(C)C(=O)c1cc(C=NOC)cc(C)c1NC(=O)c1cc(Br)nn1-c1ncccc1Cl [A-07]	3.12	100		
CON=Cc1cc(C)c(NC(=O)c2cc(Br)nn2-c2ncccc2Cl)c(C(=O)NNS(C)(=O)=O)c1 [A-09]	2.30	100	90	
CCOC(=O)NN(C)C(=O)c1cc(C=NOC)cc(C)c1NC(=O)c1cc(Br)nn1-c1ncccc1Cl [A-10]	2.97	100	90	
CON=Cc1cc(C)c(NC(=O)c2cc(Br)nn2-c2ncccc2Cl)c(C(=O)N(NC(C)=O)C(C)=O)c1 [A-11]	2.67	100	100	
CON=Cc1cc(C)c(NC(=O)c2cc(Br)nn2-c2ncccc2Cl)c(C(=O)N(NS(C)(=O)=O)S(C)(=O)=O)c1 [A-12]	2.99	100		

SMILES	log p [1, 2]	efficacy (caterpillars killed) (Spodoptera frugiperda) [%]	efficacy (aphids killed) (Myzus persicae) [%]	other results
COCCOC(=O)NN(C)C(=O)c1cc(C=NOC)cc(C)c1NC(=O)c1cc(Br)nn1-c1ncccc1Cl [A-13]	2.72	100	90	
CON=Cc1cc(C)c(NC(=O)c2cc(Br)nn2-c2ncccc2Cl)c(C(=O)N(C)NC(C)=O)c1 [A-14]	2.31	100	90	
CON=Cc1cc(C)c(NC(=O)c2cc(Br)nn2-c2ncccc2Cl)c(C(=O)NNC(=O)Oc2ccccc2)c1 [A-15]	3.03	100	90	
CON=Cc1cc(C)c(NC(=O)c2cc(Br)nn2-c2ncccc2Cl)c(C(=O)N(C)NC(=O)OC(C)C)c1 [A-16]	3.28	100		
CCOC(=O)NN(C)C(=O)c1cc(C=NOC)cc(C)c1NC(=O)c1cc(C(F)(F)F)nn1-c1ncccc1Cl [A-24]	3.31	100		
COCCOC(=O)NN(C)C(=O)c1cc(C=NOC)cc(C)c1NC(=O)c1cc(C(F)(F)F)nn1-c1ncccc1Cl [A-27]	3.05	100		
C=CCOC(=O)NN(C)C(=O)c1cc(C=NOC)cc(C)c1NC(=O)c1cc(C(F)(F)F)nn1-c1ncccc1Cl [A-28]	3.41	100		
CON=Cc1cc(C)c(NC(=O)c2cc(C(F)(F)F)nn2-c2ncccc2Cl)c(C(=O)N(C)NC(C)=O)c1 [A-30]	2.75	100		
CON=Cc1cc(C)c(NC(=O)c2cc(OCC(F)F)nn2-c2ncccc2Cl)c(C(=O)NC(C)C2CC2)c1 (stereo not shown) [C-18]		100	90	log p [1, 5]: 3.39
CON=Cc1cc(C)c(NC(=O)c2cc(OCC(F)F)nn2-c2ncccc2Cl)c(C(=O)N(C)C)c1 [C-38]		100		log p [1, 5]: 2.61
COCC(C)NC(=O)c1cc(C=NOC)cc(C)c1NC(=O)c1cc(OCC(F)F)nn1-c1ncccc1Cl (stereo not shown) [C-39]		100	100	log p [1, 5]: 2.93
CON=Cc1cc(C)c(NC(=O)c2cc(OC)nn2-c2ncccc2Cl)c(C(=O)N(C)C)c1 [C-40]				log p [1, 5]: 2.16
C#CCNC(=O)c1cc(C=NOC)cc(C)c1NC(=O)c1cc(OCC(F)F)nn1-c1ncccc1Cl [C-52]		100	90	log p [1, 5]: 2.78
COCC(C)NC(=O)c1cc(C=NOC)cc(C)c1NC(=O)c1cc(CF)nn1-c1ncccc1Cl (stereo not shown) [C-54]		100	90	log p [1, 5]: 2.47
CON=Cc1cc(C)c(NC(=O)c2cc(CF)nn2-c2ncccc2Cl)c(C(=O)N(C)C)c1 [C-55]		100		log p [1, 5]: 2.19
CON=Cc1cc(C)c(NC(=O)c2cc(C(F)F)nn2-c2ncccc2Cl)c(C(=O)N(C)C)c1 [C-61]		100		log p [1, 5]: 2.47
CCOC(=O)c1cc(OCC(F)F)nn1-c1ncccc1Cl [Ethyl 1-(3-chloropyridin-2-yl)-3-(2,2-difluoroethoxy)-1H-pyrazole-5-carboxylate]				chromatographic logP [1, 4]: 2.74
Cc1cc(C=O)cc(C(=O)O)c1N [IX-1, 2-Amino-5-formyl-3-methylbenzoic acid]				chromatographic logP [1, 4]: 1.02
COC(=O)c1cc(CF)nn1-c1ncccc1Cl [Methyl 1-(3-chloropyridin-2-yl)-3-(fluoromethyl)-1H-pyrazole-5-carboxylate]				chromatographic logP [1, 4]: 1.9
CO/N=C/c1cc(C)c(N)c(C(=O)O)c1 [VIII-1, 2-Amino-5-[(E)-(methoxyimino)methyl]-3-methylbenzoic acid]				chromatographic logP [1, 4]: 1.73
